# Experimental data published in paper PMC3602187, “From Design to Screening: A New Antimicrobial Peptide Discovery Pipeline” (PLoS ONE, 2013).
# Test system: Listeria innocua 33090
# Test: colony overlay assay of peptide-secreting E. coli clones (library screening and re-test)
# Format: cell-based
# Design: key: higher activity group (H); equal activity group (E); lower activity group (L)
# Conditions: library screening; selected colonies pooled by zone size; peptides identified by 454 sequencing, full-length sequences with minimum 20 reads
# Method: For the in vivo production of AMPs, we have employed an E. coli expression system that relies on periplasmic-expression of recombinant peptides in a host cell that lacks the lpo membrane protein, thus releasing the peptides present in the periplasmic space outside the cells. When the producer cells are grown into colonies on a solid substrate, it leads to accumulation of the recombinant peptides around the colony and allows for easy library screening. The screening assay used in this study was a modified version of the standard agar diffusion method as previously described. Library-transformed E. coli colonies are overlaid with a tester strain and incubated overnight to allow for peptide expression and tester strain growth. Next day, the plates are inspected for the formation of clear growth inhibition zones around E. coli colonies, which is an indication of active AMP production by the host colony.
# For the construction of Pln-423 mutant library in E. coli, the expression system that consists of a periplasmic-leaky E. coli strain JE5505 and the expression plasmid pFLAG-CTS was employed for direct screening of peptide activities. It should be noted here that this plasmid contains ompA secretion signal sequence and cleavage of this sequence results in a serine residue at the N-terminal of all mature peptides. A total of 1.0×10^5 colonies, approximately 8-fold coverage of the library, were screened against Listeria innocua 33090 in five separate screening experiments. L. innocua was previously deemed as a suitable indicator for pathogenic L. monocytogenes displaying similar bacteriocin sensitivity, therefore it was used as a surrogate strain throughout this study. The selection process involved two criteria; 1) the size of the each inhibition zone was compared to that of wild-type Pln-423 as a correlation to anti-listerial activity level, 2) when several colonies formed inhibition zones that are very similar in size and character, only a few from each group were selected. The colonies were pooled into three groups based on their activities, giving 43 clones in a higher activity group (H), 81 clones in an equal activity group (E), and 241 clones in a lower activity group (L). Their plasmids were extracted from each activity group and analyzed by both Sanger and 454 high-throughput sequencing to identify peptide sequences.
# These clones were also re-tested by colony overlay assay to compare their activities to wild-type Pln-423 based on the size of the inhibition zone around each clone (Figure 2-A). Based on this assay, all ten plantaricin mutants formed larger inhibition zones (10.3±0.5 to 11.4±0.3 mm zone diameter) compared to wild-type Pln-423 (6.2±0.2 mm) against L. innocua 33090. Out of those ten, three clones have a single mutation and […] clones have two mutations and the remaining single clone has three mutations. […] Positions like Ser23, Ser27, His28, and Lys36 were commonly mutated with similar amino acids indicating their potential role on higher peptide activity.
# The screening method used in this study was a modified version of the standard colony overlay method as previously described. All the chemicals and growth media supplements were obtained from either Sigma-Aldrich or Fisher Scientific unless otherwise stated. Transformed E. coli JE5505 cells were diluted to 3000–5000 cfu (determined empirically prior to screening by plating serial dilutions of E. coli suspensions of a known absorbance and counting the colonies after incubation) in 25 ml LB soft agar (0.8%, 45°C) per screening plate and poured into 150 mm petri dishes. Once the media was solidified, they were overlaid with 10 ml LB soft agar (45°C) and incubated at 37°C for 24 h for host-colony formation. Next day, these plates were re-overlaid with 10 ml TSB soft agar containing 1 mM IPTG and the indicator strain Listeria innocua ATCC 33090 (diluted to OD600 = 0.03). […]
row,Substance,activity group by size of inhibition zone compared to wild-type Pln-423
1,KYYGNGVTCGKHSCSVNWGQAFSCSVEHLANFGHGKC* [Pep-1_56],E and H
2,KYYGNGVTCGKHSCSVNWGQAFSCSVEHLANFGHIKC* [Pep-2_6070],L
3,KYYGNGVTCGKHSCSVNWGQAFSCSVEHLANFGHNKC* [Pep-2_11318],H
4,KYYGNGVTCGKHSCSVNWGQAFSCSVEHLANFGYGKC* [Pep-2_6063],E
5,KYYGNGVTCGKHSCSVNWGQAFSCSVFHLANFGHGLC* [Pep-2_12076],L
6,KYYGNGVTCGKHSCSVNWGQAFSCSVGVLANFGHMHC* [GROUP L-UM-19],L
7,KYYGNGVTCGKHSCSVNWGQAFSCSVHHLANFGHGKC* [Pep-1_55],L
8,KYYGNGVTCGKHSCSVNWGQAFSCSVHHLANYGHGKC* [Pep-2_5943],L
9,KYYGNGVTCGKHSCSVNWGQAFSCSVHRLANFGHGKC* [Pep-2_5917],L
10,KYYGNGVTCGKHSCSVNWGQAFSCSVIALANFGHGKC* [Pep-2_7000],L
11,KYYGNGVTCGKHSCSVNWGQAFSCSVIHLANFGHGSC* [Pep-2_11968],H
12,KYYGNGVTCGKHSCSVNWGQAFSCSVLHLANFGHGKC* [GROUP L-UM-20],L
13,KYYGNGVTCGKHSCSVNWGQAFSCSVMHLANFGHGKC* [GROUP L-UM-16],L
14,KYYGNGVTCGKHSCSVNWGQAFSCSVNVLANFGHGKC* [Pep-2_6891],L
15,KYYGNGVTCGKHSCSVNWGQAFSCSVRHLANFGHGEC* [Pep-2_11857],L
16,KYYGNGVTCGKHSCSVNWGQAFSCSVSALANFGHGRC* [Pep-2_7045],L
17,KYYGNGVTCGKHSCSVNWGQAFSCSVSDLANFGHGKC* [Pep-1_62],L
18,KYYGNGVTCGKHSCSVNWGQAFSCSVSHFANFGHGKC* [GROUP E-UM-8],E
19,KYYGNGVTCGKHSCSVNWGQAFSCSVSHLA*FGHGKC* [GROUP L-UM-33],L
20,KYYGNGVTCGKHSCSVNWGQAFSCSVSHLAAFGHGSC* [Pep-2_11993],H
21,KYYGNGVTCGKHSCSVNWGQAFSCSVSHLAEFGHGKC* [Pep-1_80],L
22,KYYGNGVTCGKHSCSVNWGQAFSCSVSHLAKFGHGKC* [Pep-1_81],L
23,KYYGNGVTCGKHSCSVNWGQAFSCSVSHLANFGEGKC* [Pep-1_98],H
24,KYYGNGVTCGKHSCSVNWGQAFSCSVSHLANFGFGWC* [Pep-2_12334],L
25,KYYGNGVTCGKHSCSVNWGQAFSCSVSHLANFGHAKC* [Pep-1_107],L
26,KYYGNGVTCGKHSCSVNWGQAFSCSVSHLANFGHDKC* [GROUP E-UM-9],E

row,Substance,activity group by size of inhibition zone compared to wild-type Pln-423
1,KYYGNGVTCGKHSCSVNWGQAFSCSVSHLANFGHGCC* [GROUP L-UM-31],L
2,KYYGNGVTCGKHSCSVNWGQAFSCSVSHLANFGHGEC* [Pep-1_110],H
3,KYYGNGVTCGKHSCSVNWGQAFSCSVSHLANFGHGKC* [GROUP E-UM-11],E
4,KYYGNGVTCGKHSCSVNWGQAFSCSVSHLANFGHGKC* [GROUP L-UM-27],L
5,KYYGNGVTCGKHSCSVNWGQAFSCSVSHLANFGHGLC* [Pep-1_112],L
6,KYYGNGVTCGKHSCSVNWGQAFSCSVSHLANFGHGRC* [GROUP L-UM-25],L
7,KYYGNGVTCGKHSCSVNWGQAFSCSVSHLANFGHGSC* [Pep-1_111],L and E
8,KYYGNGVTCGKHSCSVNWGQAFSCSVSHLANFGHGWC* [Pep-1_114],L
9,KYYGNGVTCGKHSCSVNWGQAFSCSVSHLANFGHNWC* [Pep-2_12339],E
10,KYYGNGVTCGKHSCSVNWGQAFSCSVSHLANFGHRAC* [Pep-2_11153],L
11,KYYGNGVTCGKHSCSVNWGQAFSCSVSHLANFGIGLC* [GROUP L-UM-3],L
12,KYYGNGVTCGKHSCSVNWGQAFSCSVSHLANFGKGKC* [GROUP L-UM-11],L
13,KYYGNGVTCGKHSCSVNWGQAFSCSVSHLANFGMGEC* [Pep-2_10826],H
14,KYYGNGVTCGKHSCSVNWGQAFSCSVSHLANFGMGYC* [Pep-2_10827],H
15,KYYGNGVTCGKHSCSVNWGQAFSCSVSHLANFGRGKC* [Pep-1_97],L
16,KYYGNGVTCGKHSCSVNWGQAFSCSVSHLANFGSGKC* [Pep-1_99],E
17,KYYGNGVTCGKHSCSVNWGQAFSCSVSHLANFGWGKC* [Pep-1_102],L
18,KYYGNGVTCGKHSCSVNWGQAFSCSVSHLANFSHGKC* [GROUP L-UM-18],L
19,KYYGNGVTCGKHSCSVNWGQAFSCSVSHLANGGHGKC* [Pep-1_89],L
20,KYYGNGVTCGKHSCSVNWGQAFSCSVSHLANIGHGEC* [Pep-2_11890],L
21,KYYGNGVTCGKHSCSVNWGQAFSCSVSHLANMGHGKC* [Pep-1_88],H
22,KYYGNGVTCGKHSCSVNWGQAFSCSVSHLAWFGHGHC* [Pep-2_9097],L
23,KYYGNGVTCGKHSCSVNWGQAFSCSVSHLAWFGHGKC* [Pep-1_84],L
24,KYYGNGVTCGKHSCSVNWGQAFSCSVSHMANFGHGKC* [Pep-1_70],L
25,KYYGNGVTCGKHSCSVNWGQAFSCSVSHWANFGHGKC* [GROUP L-UM-32],L
